12 compounds from ChEMBL document CHEMBL4665838, “Identification of a novel orally bioavailable NLRP3 inflammasome inhibitor” (Bioorg Med Chem Lett, 2020) can be followed below.

In data set [1] the target is T1, NACHT, LRR and PYD domains-containing protein 3 (Homo sapiens, UniProt Q96P20). Put plainly: Inhibition of NLRP3 in human THP1 cells assessed as inhibition of IL-1beta production. The data set is classed as cell-based, THP-1.
For data set [2], the target named is T1, NACHT, LRR and PYD domains-containing protein 3. The experiment in a line: Inhibition of NLRP3 in human THP1 cells assessed as inhibition of IL-1beta production at 1 uM relative to control. The note with it: THP-1. The data set is classed as cell-based.
Data set [3] is described as follows: AUC (0 to t) in C57BL/6 mouse at 3 mg/kg, po. The note with it: in vivo. On the set-up: dose 3 mg/kg. The data set is classed as ADME, organism-based.
The nature of data set [4]: Permeability in human Caco2 cells. The data set is classed as ADME, cell-based. The following applies: caco-2.
Data set [5] is described as follows: MRT in C57BL/6 mouse at 1 mg/kg, iv. The following applies: in vivo. The data set is classed as ADME, organism-based.
Data set [6] can be described thus: Terminal half life in C57BL/6 mouse at 1 mg/kg, iv. The data set is classed as ADME, organism-based. The following applies: in vivo, read-out: beta t1/2 (converted).
A short description of data set [7]: MRT in C57BL/6 mouse at 3 mg/kg, po. The data set is classed as ADME, organism-based. The following applies: in vivo.
Data set [8] can be described thus: Volume of distribution at steady state in C57BL/6 mouse at 1 mg/kg, iv. The data set is classed as ADME, organism-based. The note with it: in vivo, read-out: Vdss.
Data set [9] is described as follows: Clearance in C57BL/6 mouse at 1 mg/kg, iv. The data set is classed as ADME, organism-based. The following applies: in vivo.
For another data set, the target named is T2, Cytochrome P450 2C8 (Homo sapiens, UniProt P10632).
T2 sequence (P10632 whole entry): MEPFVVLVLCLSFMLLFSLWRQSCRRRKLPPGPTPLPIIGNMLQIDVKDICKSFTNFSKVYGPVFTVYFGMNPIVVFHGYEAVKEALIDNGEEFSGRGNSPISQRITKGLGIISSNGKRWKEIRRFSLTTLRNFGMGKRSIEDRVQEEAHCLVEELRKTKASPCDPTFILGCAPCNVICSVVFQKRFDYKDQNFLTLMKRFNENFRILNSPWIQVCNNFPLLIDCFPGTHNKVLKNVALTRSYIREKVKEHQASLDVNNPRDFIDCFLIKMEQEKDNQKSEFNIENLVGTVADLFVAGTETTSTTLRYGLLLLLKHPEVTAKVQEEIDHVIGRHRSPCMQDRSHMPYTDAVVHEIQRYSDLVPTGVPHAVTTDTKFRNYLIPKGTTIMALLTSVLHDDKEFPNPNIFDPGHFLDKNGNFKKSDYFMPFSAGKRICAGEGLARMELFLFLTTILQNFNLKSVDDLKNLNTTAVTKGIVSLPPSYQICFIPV
Put plainly: Inhibition of CYP2C8 (unknown origin). The data set is classed as ADME.

Data set [10] can be described thus: Metabolic stability in human liver microsomes. The data set is classed as ADME, Microsome. Background: Microsomes from liver hold many membrane-bound enzymes, among them those of drug oxidation.
A further data set addresses Cytochrome P450 2C9 (Homo sapiens, UniProt P11712). The experiment in a line: Inhibition of CYP2C9 (unknown origin). The data set is classed as ADME.
The nature of data set [11]: Initial plasma concentration in C57BL/6 mouse at 1 mg/kg, iv. The data set is classed as ADME, organism-based.
The nature of data set [12]: Terminal half life in C57BL/6 mouse at 3 mg/kg, po. The data set is classed as ADME, organism-based. The note with it: in vivo, read-out: beta t1/2 (converted).
The target of data set [13] is T3, Interferon-inducible protein AIM2 (Homo sapiens) (UniProt O14862).
T3 sequence (whole entry): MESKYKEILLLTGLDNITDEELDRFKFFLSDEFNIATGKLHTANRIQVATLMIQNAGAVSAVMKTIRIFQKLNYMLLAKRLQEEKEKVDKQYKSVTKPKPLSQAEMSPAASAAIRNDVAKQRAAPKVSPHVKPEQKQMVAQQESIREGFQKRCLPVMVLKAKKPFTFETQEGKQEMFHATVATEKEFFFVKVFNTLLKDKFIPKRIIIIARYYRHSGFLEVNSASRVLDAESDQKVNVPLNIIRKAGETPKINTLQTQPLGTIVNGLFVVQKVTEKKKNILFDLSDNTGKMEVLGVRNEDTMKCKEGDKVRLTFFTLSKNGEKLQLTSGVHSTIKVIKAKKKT
Put plainly: Inhibition of AIM2 inflammasome (unknown origin).

Data set [14] can be described thus: Tmax in C57BL/6 mouse at 3 mg/kg, po. The note with it: in vivo. The data set is classed as ADME, organism-based.
Data set [15] can be described thus: Metabolic stability in rat liver microsomes. The data set is classed as ADME, Microsome.
Data set [16] is described as follows: Aqueous solubility of the compound. The data set is classed as physicochemical. The following applies: buffer.
Data set [17] can be described thus: Metabolic stability in dog liver microsomes. The data set is classed as ADME, Canis lupus familiaris, Microsome.
Data set [18] in a line: AUC (0 to t) in C57BL/6 mouse at 1 mg/kg, iv. The data set is classed as ADME, organism-based. More on the design: dose 1 mg/kg. The note with it: in vivo.
Data set [19] can be described thus: Cmax in C57BL/6 mouse at 3 mg/kg, po. The following applies: in vivo. The data set is classed as ADME, organism-based. More on the design: route oral, dose 3 mg/kg.
A short description of data set [20]: Oral bioavailability in C57BL/6 mouse at 3 mg/kg. The data set is classed as ADME, organism-based. The following applies: in vivo.
Data set [21] is described as follows: Metabolic stability in mouse liver microsomes. The data set is classed as ADME, Microsome.

pIC50: −log10 of the molar value. Active and inactive are the calls of the source. The calls are words filed in the database; no cut-off is given here.

T1 sequence (Q96P20 whole entry, the tested form may be a part): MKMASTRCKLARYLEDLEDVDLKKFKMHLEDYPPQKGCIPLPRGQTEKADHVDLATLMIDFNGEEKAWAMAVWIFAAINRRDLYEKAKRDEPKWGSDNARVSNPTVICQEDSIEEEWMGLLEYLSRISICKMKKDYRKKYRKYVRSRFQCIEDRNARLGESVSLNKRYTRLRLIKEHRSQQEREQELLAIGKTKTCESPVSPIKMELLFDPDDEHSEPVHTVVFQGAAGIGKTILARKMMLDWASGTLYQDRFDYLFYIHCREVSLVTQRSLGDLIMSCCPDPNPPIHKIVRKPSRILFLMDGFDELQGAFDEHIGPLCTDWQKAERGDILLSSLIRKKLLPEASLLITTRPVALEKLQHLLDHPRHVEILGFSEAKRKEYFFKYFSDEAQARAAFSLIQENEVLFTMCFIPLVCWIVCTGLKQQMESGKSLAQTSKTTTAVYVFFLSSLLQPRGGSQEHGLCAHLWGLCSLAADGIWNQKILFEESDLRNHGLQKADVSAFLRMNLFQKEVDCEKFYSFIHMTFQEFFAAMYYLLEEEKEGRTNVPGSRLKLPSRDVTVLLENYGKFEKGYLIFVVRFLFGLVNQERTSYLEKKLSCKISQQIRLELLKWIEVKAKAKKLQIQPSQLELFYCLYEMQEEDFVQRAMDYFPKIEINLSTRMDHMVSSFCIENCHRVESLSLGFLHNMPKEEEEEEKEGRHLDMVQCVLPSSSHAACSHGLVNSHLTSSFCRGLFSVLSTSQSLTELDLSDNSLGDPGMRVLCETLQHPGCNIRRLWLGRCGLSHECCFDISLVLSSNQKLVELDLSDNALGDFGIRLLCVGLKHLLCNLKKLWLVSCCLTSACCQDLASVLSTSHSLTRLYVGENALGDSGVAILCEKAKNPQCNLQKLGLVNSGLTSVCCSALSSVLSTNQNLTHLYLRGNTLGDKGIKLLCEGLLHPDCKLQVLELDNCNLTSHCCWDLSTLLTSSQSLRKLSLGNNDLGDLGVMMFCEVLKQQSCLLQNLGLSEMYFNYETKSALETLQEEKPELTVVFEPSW
Cytochrome P450 2C9, sequence (P11712 whole entry): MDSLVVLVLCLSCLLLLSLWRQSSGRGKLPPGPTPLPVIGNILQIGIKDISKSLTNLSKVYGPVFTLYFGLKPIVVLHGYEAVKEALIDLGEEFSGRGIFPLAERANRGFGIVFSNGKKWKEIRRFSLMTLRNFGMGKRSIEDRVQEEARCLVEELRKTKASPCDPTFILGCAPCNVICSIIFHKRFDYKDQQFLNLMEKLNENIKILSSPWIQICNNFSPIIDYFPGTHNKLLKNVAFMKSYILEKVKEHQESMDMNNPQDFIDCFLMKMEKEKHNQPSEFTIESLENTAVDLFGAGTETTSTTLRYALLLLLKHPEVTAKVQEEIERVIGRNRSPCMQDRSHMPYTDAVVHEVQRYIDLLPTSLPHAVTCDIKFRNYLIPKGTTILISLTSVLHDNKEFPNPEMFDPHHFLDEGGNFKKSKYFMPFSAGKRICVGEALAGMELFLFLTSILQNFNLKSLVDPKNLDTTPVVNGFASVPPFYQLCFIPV

As usually defined, the pIC50 is the IC50 on a negative log10 scale, so that one unit is a factor of ten. Take `O=C(Nc1c2c(cc3c1CCC3)CCC2)NS(=O)(=O)/C=C/c1ccccn1`: the pIC50 in data set [1] was 6.00.

As usually defined, the inhibition is the drop in the measured response relative to a control, in per cent. Consider `O=C(Nc1c(F)cccc1C(F)(F)F)NS(=O)(=O)/C=C/c1nccs1`, for which, in data set [2], the inhibition is less than 50%. In data set [1], the negative-log IC50 (pIC50) was less than 6.00.

Turning to `O=C(Nc1ccccc1C(F)(F)F)NS(=O)(=O)/C=C/c1nccs1`, in data set [2], the inhibition is less than 50%. Further, in data set [1], the pIC50 is less than 6.00.

For `O=C(Nc1cc(C(F)(F)F)ccc1C(F)(F)F)NS(=O)(=O)/C=C/c1nccs1`, the inhibition in data set [2] is less than 50%. Also, the negative logarithm of the IC50 (pIC50) in [1] was less than 6.00.

The term AUC(0-t) denotes the area under the concentration-time curve up to a stated or last time point. One may read the MRT as the average time that molecules of a dose stay in the body. In general, clearance refers to the volume of plasma or blood freed of the substance per unit of time. A low value points to a low capacity for elimination. As usually defined, the Tmax is the time at which the peak concentration occurs. As usually defined, the Cmax is the highest concentration seen after dosing. Take `O=C(Nc1c2c(cc3c1CCC3)CCC2)NS(=O)(=O)/C=C/c1nccs1`: the area under the curve AUC(0-t) stood at 48900 ng·h/mL in data set [3] and 16500 ng·h/mL in data set [18]. Further, the permeability result in data set [4] is listed as “Permeable”. Besides, the MRT in [5] came out at 3.23 h; in [7], 4.9 h. Besides, the half-life was 2.35 h in data set [6] and 2.86 h in data set [12]. For the same compound, the Vd in [8] was found to be 0.2 L/kg. In addition, the clearance in data set [9] was 1.01 mL/min/kg. Besides, the “inhibition (INH)” value against Cytochrome P450 2C8 and against Cytochrome P450 2C9 was “Active” throughout. Besides, the Stabilty result in data set [10], in [15], in data set [17] and in data set [21] was “Stable” in each case. The compound further displayed a C0 in [11] of 6270 ng/mL. The inhibition result in [13] was “inactive”. Besides, the Tmax in data set [14] stood at 0.25 h. Besides, the solubility entry in data set [16] is “Soluble”. Further, the peak concentration (Cmax) in [19] was determined as 8490 ng/mL. In [20], this compound returned an F of 99%.

In the case of `Cc1cc(C)c(C)c(NC(=O)NS(=O)(=O)/C=C/c2nccs2)c1C`, the inhibition in data set [2] was less than 50%. Also, in [1], the negative logarithm of the IC50 (pIC50) is less than 6.00.

`CC(C)c1cccc(C(C)C)c1NC(=O)NS(=O)(=O)/C=C/c1nccs1`: the inhibition in [2] is less than 50%. Besides, the pIC50 in data set [1] is less than 6.00.

Turning to `O=C(Nc1c2c(cc3c1OCC3)OCC2)NS(=O)(=O)/C=C/c1nccs1`, the inhibition in data set [2] is less than 50%.

On to `COc1cccc(OC)c1NC(=O)NS(=O)(=O)/C=C/c1nccs1`, for which the inhibition in data set [2] was less than 50%. Besides, the negative logarithm of the IC50 (pIC50) in data set [1] is less than 6.00.

As to `Cc1cnc(/C=C/S(=O)(=O)NC(=O)Nc2c3c(cc4c2CCC4)CCC3)s1`, in data set [1], the negative logarithm of the IC50 (pIC50) is 5.97.

`CC(C)(O)c1coc(S(=O)(=O)NC(=O)Nc2c3c(cc4c2CCC4)CCC3)c1`: the results for the AUC(0-t) in data set [3] and in data set [18] were 46900 ng·h/mL and 20700 ng·h/mL, respectively. Also, the values for the MRT in [5] and in data set [7] were 3.22 h and 3.07 h, respectively. The results for the half-life in data set [6] and in data set [12] were 3.97 h and 1.32 h, respectively. Besides, in [8], the Vd was 0.15 L/kg. The compound further yielded a clearance in data set [9] of 0.8 mL/min/kg. In addition, the C0 in [11] amounted to 22200 ng/mL. Further, the time to peak (Tmax) in [14] stood at 0.25 h. The highest concentration (Cmax) in [19] came out at 11700 ng/mL. Besides, in [20], the F came out at 77%.

Regarding `O=C(Nc1c2c(cc3c1CCC3)CCC2)NS(=O)(=O)/C=C/c1nc2ccccc2s1`, in data set [2], the inhibition was less than 50%. Moreover, the pIC50 in data set [1] was less than 6.00.
